Experimental data published in patent US12655101B2, “Small molecules with antibacterial activity” (NEW MEXICO TECH UNIVERSITY RESEARCH PARK CORPORATION, priority 2021, dated 2026).
Converted amounts (≈) assume the structure as drawn. Read-outs that look alike come from different tables or passages of the source.

Tests used:
Assay type in all cases: cell-based
[1] = test system: A. baumannii ATCC 15151; experiment: Filamentation with ciprofloxacin and Compound 25 on A. baumannii; details: 18 hours
Protocol: A. baumannii ATCC 15151: […] The culture tubes were incubated for 18 hours at 37° C. After 18 hours incubation, took 3 μL of cells from each well and plated on microscope slide to observe the following: […]

[2] = test system: S. aureus; experiment: Evolution of resistance in S. aureus over 32 days; details: Staphylococcus aureus
Text: Over a period of 32 days, S. aureus cells were exposed to sub-inhibitory concentrations of the indicated compound, norfloxacin, or oxacillin and sub-cultured at the newly emerged, sub-inhibitory concentration.

[3] = test system: RecA-GFP fusion protein in E. coli MG1655; experiment: Inhibition of norfloxacin-triggered RecA-GFP induction in E. coli MG1655; details: for killing of E. coli: PME or norfloxacin 30 minutes, then compound, 3.5 hours; for SOS response (RecA-GFP induction): norfloxacin-triggered, sub-potent Polymixin E to facilitate entry
Protocol: An increase in DNA damage-induced RecA protein expression is required for identification and repair of DNA lesions. LexA-repressed transcription of a norfloxacin-triggered SOS response was measured by detecting an increase in RecA-GFP fusion protein fluorescence in an E. coli recombinant model. The compounds of the disclosure inhibited RecA-GFP induction and presumably, the concurrent SOS response. Inhibition of RecA-GFP expression correlated with an increase in cell death, most likely as a result of ALD activation. Sub-potent concentrations of Polymixin E were used to facilitate entry of the compounds into cells.
E. coli MG1655 was grown from a glycerol stock by placing a small volume of cells onto a MHA plate. The MHA plate was incubated overnight at 37° C. A single colony was subsequently used to inoculate MHB+10 μg/mL kanamycin to obtain a bacterial broth suspension. This was grown in at 37° C. on a rotary shaking incubator (100 rpm) for 12 hours. The bacterial cell concentration was adjusted to ˜5×10^5 colony forming units per milliliter (CFU/mL) in MHB using optical density at 595 nm. Treated cells with polymyxin E (PME) or norfloxacin (in μg/ml) at indicated concentrations for 30 minutes at 37° C. and then added a compound of the disclosure at indicated micromolar concentrations. Incubated for 3.5 hours at 37° C. Cell samples were read on the flow cytometer to detect (green fluorescent) RLU RecA expression and/or shutdown.
E. coli MG1655 was grown from a glycerol stock by placing a small volume of cells onto a MHA plate. The MHA plate was incubated overnight at 37° C. A single colony was subsequently used to inoculate MHB+10 μg/mL kanamycin to obtain a bacterial broth suspension. The MHB broth suspension was grown at 37° C. on a rotary shaking incubator (100 rpm) for 12 hours. The bacterial cell concentration was adjusted to ˜5×10^5 CFU/mL in MHB using OD at 595 nm.
Cells were treated with 0.03 μg/mL and 0.06 μg/mL norfloxacin for 30 minutes at 37° C. Then, 100 μM of the compounds were added. The cells were incubated for 3.5 hours at 37° C. 200 μL aliquots were removed and read by a flow cytometer to detect RecA production and/or shutdown. The cells were incubated for an additional 18 hours at 37° C. to assess overall toxicity.

[4] = test system: A. baumannii ATCC BAA-1797; experiment: Colony counts of A. baumannii ATCC BAA-1797 treated with 4xMIC for 16 hours; details: 1 μg/mL PME, 1 mM PAO, compounds at 4xMIC
[5] = test system: E. coli pUC18; experiment: Nitrocefin β-lactamase assay (outer membrane disruption); details: 10 μM melittin; 10 μg/mL PME; 6, 12, 24 μM Compound 25 and 26; 100 μM Compound 27; 50 μM Compound 15; 30 minutes
Protocol: E. coli pUC18 was grown from a glycerol stock by placing a small volume of cells onto a MHA plate. The MHA plate was incubated overnight at 37° C. A single colony was subsequently used to inoculate MHB+100 μg/mL ampicillin to obtain a bacterial broth suspension. The MHB broth suspension was grown at 37° C. on a rotary shaking incubator (100 rpm) for 12 hours. The cells were washed 3× by centrifuging and washing with 1 mL medium 200. The washed bacterial cell concentration was adjusted to ˜1×10^7 CFU/mL in medium 200 using OD at 595 nm. The cells were treated cells with 10 μM melittin; 6, 12, 24 μM Compound 25; 6 μM, 12 μM, 24 μM Compound 26; 100 μM Compound 27; 50 μM Compound 15; and 10 μg/mL PME. The cells were incubated at 37° C. for 30 minutes; added 50 μM nitrocefin and incubated 10 minutes at 37° C.
pUC18 E. coli carry an ampicillin resistance gene and produce β-lactamase.

[6] = test system: E. coli pNMT41; experiment: 6-chloro-4-methyl-umbelliferyl-β-D-glucuronide assay for beta-glucuronidase (inner membrane disruption); details: 10 μg/mL PME
Protocol: E. coli pNMT 41 was grown from a glycerol stock by placing a small volume of cells onto a MHA plate. The MHA plate was incubated overnight at 37° C. A single colony was subsequently used to inoculate MHB+100 μg/mL ampicillin to obtain a bacterial broth suspension. The MHB broth suspension was grown at 37° C. on a rotary shaking incubator (100 rpm) for 12 hours. The bacterial cell concentration was adjusted to ˜1×10^7 CFU/mL in MHB using OD at 595 nm. The cells were washed 3× by spinning by centrifuge and washing with 500 μL medium 200. The cells were resuspended in 7 mL medium 200. The cells were treated with 10 μM melittin, 6, 12, 24, and 100 μM Compound 25, and 10 μg/mL PME. The cells were incubated at 37° C. for 30 minutes. 1 μM umbelliferyl was added, and the cells were incubated further for 10 minutes at 37° C.
The cells were then incubated at 37° C. for 45 minutes. 1 μM umbelliferyl was added, and the cells were incubated further for 10 minutes at 37° C.

[7] = test system: A. baumannii ATCC BAA-1797; experiment: MIC on A. baumannii ATCC BAA-1797; details: Acinetobacter baumannii
Protocol: A. baumannii: A. baumannii ATCC BAA-1797 was grown from a glycerol stock by placing a small volume of cells onto a MHA plate. The MHA plate was incubated overnight at 37° C. A single colony was used to inoculate MHB to obtain a bacterial broth suspension. The MHB broth suspension was grown at 37° C. on a rotary shaking incubator (100 rpm) for 12 hours. The bacterial cell concentration was adjusted to ˜5×10^5 CFU/mL in MHB or MHB+10%, 20% or 40% FBS using OD at 595 nm. 500 μL aliquots of the adjusted bacterial cell suspension were placed into borosilicate glass tubes. The cell suspensions were treated with a compound of interest, and the treatments were serially diluted two-fold. The culture tubes were incubated for 18 hours at 37° C. Efficacy was either assessed visually or by adding 10% v/v MTT (5 mg/mL stock) after the 18 hour incubation period. The cell suspensions were subsequently incubated for 10 minutes to allow the MTT reagent to carry out the colorimetric reaction. The OD was read at 595 nm.

[8] = test system: UmuC (error-prone polymerase); experiment: UmuC gene expression by rtPCR in S. aureus; details: sub-inhibitory norfloxacin
Text: RecA and error-prone polymerase subunit UmuC transcripts were quantitatively measured using rtPCR in S. aureus. S. aureus was challenged with sub-inhibitory concentrations of DNA-damaging norfloxacin.

[9] = test system: A. baumannii ATCC 1515; experiment: Membrane depolarization detected by DiOC2(3); details: 1xMIC; 20 μM CCCP; 25 minutes
[10] = test system: A. baumannii ATCC 15151; experiment: DNA degradation (agarose gel), drug-sensitive strain; details: 1.5% H2O2, 10 μg/mL ciprofloxacin, 100 μM Compound 25; 3 hours
[11] = 0 h, read-out: Initial MIC Day 0
[12] = 10 μM melittin, 6, 12, 24, 100 μM Compound 25, 30 minutes

Molecule: O=C(O)c1cn(C2CC2)c2cc(N3CCNCC3)c(F)cc2c1=O [Ciprofloxacin, reference compound]
- cell morphology and growth ([1]; 125 ng/mL ciprofloxacin): largely elongated in morphology and growth inhibition was observed
- cell morphology and growth ([1]; single agent: 50 ng/mL ciprofloxacin or […] Compound 25): slightly elongated and some growth inhibition was observed

Molecule: Brc1ccc(/N=N/c2c[nH]c3ccccc23)cc1 [Compound 47, (E)-3-((4-bromophenyl)diazenyl)-1H-indole]
- MIC [2, 11]: 4 µM (≈ 1.2 µg/mL)
- MIC ([2]; read-out: Final MIC Day 32): 4 µM (≈ 1.2 µg/mL)
- killing of E. coli [3]: killed E. coli
- SOS response (RecA-GFP induction) [3]: inhibited the SOS response

Molecule: polymyxin E [PME]
- cell viability after 16 hours of treatment [4]: cells were still viable
- outer membrane disruption (β-lactamase leakage, nitrocefin colour) [5]: high concentration of β-lactamase in the supernatant
- inner membrane disruption (GUS fluorescence) [6, 12]: disrupt inner membrane
- inner membrane disruption (GUS fluorescence) ([6]; separate experiment, 12.5 μM Compound 14, 45 minutes): disrupts inner membrane

Molecule: CC[C@H](C)[C@H](NC(=O)CN)C(=O)NCC(=O)N[C@@H](C)C(=O)N[C@H](C(=O)N[C@@H](CC(C)C)C(=O)N[C@@H](CCCCN)C(=O)N[C@H](C(=O)N[C@@H](CC(C)C)C(=O)N[C@H](C(=O)N[C@H](C(=O)NCC(=O)N[C@@H](CC(C)C)C(=O)N1CCC[C@H]1C(=O)N[C@@H](C)C(=O)N[C@@H](CC(C)C)C(=O)N[C@H](C(=O)N[C@@H](CO)C(=O)N[C@@H](Cc1c[nH]c2ccccc12)C(=O)N[C@H](C(=O)N[C@@H](CCCCN)C(=O)N[C@@H](CCCNC(=N)N)C(=O)N[C@@H](CCCCN)C(=O)N[C@@H](CCCNC(=N)N)C(=O)N[C@@H](CCC(N)=O)C(=O)N[C@@H](CCC(N)=O)C(N)=O)[C@@H](C)CC)[C@@H](C)CC)[C@@H](C)O)[C@@H](C)O)C(C)C)C(C)C [Melittin, melittin]
- outer membrane disruption (β-lactamase leakage, nitrocefin colour) [5]: high concentration of β-lactamase in the supernatant
- inner membrane disruption (GUS fluorescence) [6, 12]: disrupt inner membrane

Molecule: COc1ccc(/N=N/c2c(-c3ccc(OC)cc3)[nH]c3ccccc23)cc1 [Compound 46, (E)-2-(4-methoxyphenyl)-3-((4-methoxyphenyl)diazenyl)-1H-indole]
- MIC ([7]; ATCCBAA1797, 18 h, read-out: MIC in the presence of 40% FBS, A. baumannii ATCC BAA-1797, 40% FBS): > 100 µM
- MIC ([7]; ATCCBAA1797, A. baumannii ATCC BAA-1797, absence of serum, read-out: MIC in the absence of serum): > 100 µM
- MIC [2, 11]: 1 to 2 µM (≈ 0.357 to 0.715 µg/mL)
- MIC ([2]; read-out: Final MIC Day 32): 1 to 2 µM (≈ 0.357 to 0.715 µg/mL)
- UmuC (error-prone polymerase) gene expression [8]: transcriptional inhibition

Molecule: N#CC(C#N)=NNc1cccc(Cl)c1 [CCCP, reference compound]
- cell membrane depolarization [9]: depolarized the cell membrane

Molecule: Clc1ccc(Oc2c(-c3ccc(Cl)cc3)[nH]c3ccccc23)cc1 [Compound 49, 3-(4-chlorophenoxy)-2-(4-chlorophenyl)-1H-indole]
- MIC [2, 11]: 2 µM (≈ 0.708 µg/mL)
- MIC ([2]; read-out: Final MIC Day 32): 1 µM (≈ 0.354 µg/mL)
- killing of E. coli [3]: killed E. coli
- SOS response (RecA-GFP induction) [3]: inhibited the SOS response

Molecule: OO [Compound H2O2, hydrogen peroxide, reference compound]
- DNA degradation [10]: degraded DNA completely
